In US9512074B2, “Radiolabeled inhibitors of the amino acid transporters ASCT1 and ASCT2” (The University of Montana, priority 2011, dated 2016):

Assays:
[1] = target: T1, murine ASCT2 (Mus musculus, UniProt P51912); assay: Inhibition of anion leak current, two-electrode voltage clamp in Xenopus oocytes expressing mouse ASCT2; type: cell-based; settings: for Ki: Xenopus oocytes expressing mouse ASCT2, held at −20 mV, * = actual Ki, others Ki estimates
T1 construct: expressed in transfected cells; host or cells: Xenopus laevis oocytes (cRNA microinjection)
T1 sequence (P51912 1-553): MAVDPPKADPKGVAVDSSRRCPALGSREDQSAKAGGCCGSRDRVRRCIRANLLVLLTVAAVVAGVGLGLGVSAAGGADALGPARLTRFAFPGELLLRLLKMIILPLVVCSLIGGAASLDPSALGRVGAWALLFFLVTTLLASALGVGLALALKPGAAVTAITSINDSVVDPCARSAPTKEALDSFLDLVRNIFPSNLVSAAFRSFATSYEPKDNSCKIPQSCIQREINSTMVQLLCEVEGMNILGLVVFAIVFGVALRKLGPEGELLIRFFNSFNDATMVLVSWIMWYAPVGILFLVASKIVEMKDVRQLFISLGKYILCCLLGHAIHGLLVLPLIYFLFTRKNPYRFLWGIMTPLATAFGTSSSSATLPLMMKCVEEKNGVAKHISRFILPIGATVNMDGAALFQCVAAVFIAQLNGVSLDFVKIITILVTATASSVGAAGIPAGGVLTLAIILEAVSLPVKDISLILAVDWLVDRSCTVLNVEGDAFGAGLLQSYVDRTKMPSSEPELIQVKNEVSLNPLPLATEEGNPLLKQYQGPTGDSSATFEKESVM
Procedure: (§1) Human ASCT1 and murine ASCT2 cRNA were microinjected in stage V-VI oocytes. Uncoupled anion currents associated with the transport of substrate were recorded 3-5 days later as previously described (Zerangue & Kavanaugh, 1996). Recording solution contained 50 mM NaCl, 50 mM NaSCN, 2 mM KCl, 1 mM MgCl2, 1.8 mM CaCl2, and 5 mM HEPES (pH 7.4). Using two-electrode voltage clamp (TEVC), oocytes were held at −20 mV. Microelectrodes were filled with 3M KCl and had resistances from 1 to 3 MΩ. Recordings were performed at 22° C. with a Geneclamp 500 amplifier connected to a PowerLab 2/26 (AD instruments). The digital output was interfaced to a MacBook Pro (Macintosh) using Chart v7.1.2 software. The currents were low-pass filtered at 10 Hz and acquired at 20 Hz. Data was analyzed offline and modeling and fitting of substrate concentration-dependence of the currents was performed with Kaleidagraph software (v 4.04). The concentration dependent percent block of the anion leak or substrate activation of the anion current were fit with the Michaelis-Menten equation (Ianion=Imax×[Drug]/(Km+[Drug])) to define the Ki of inhibition or the apparent affinity (Km) of transport, respectively.

[2] = target: T2, Human ASCT1 (Homo sapiens, UniProt P43007); assay: Inhibition of anion leak current, two-electrode voltage clamp in Xenopus oocytes expressing human ASCT1; type: cell-based; settings: for Ki: Xenopus oocytes expressing human ASCT1, held at −20 mV, * = actual Ki, others Ki estimates, read-out: Ki (μM) ACST1
T2 construct: expressed in transfected cells; host or cells: Xenopus laevis oocytes (cRNA microinjection)
T2 sequence (P43007 1-532): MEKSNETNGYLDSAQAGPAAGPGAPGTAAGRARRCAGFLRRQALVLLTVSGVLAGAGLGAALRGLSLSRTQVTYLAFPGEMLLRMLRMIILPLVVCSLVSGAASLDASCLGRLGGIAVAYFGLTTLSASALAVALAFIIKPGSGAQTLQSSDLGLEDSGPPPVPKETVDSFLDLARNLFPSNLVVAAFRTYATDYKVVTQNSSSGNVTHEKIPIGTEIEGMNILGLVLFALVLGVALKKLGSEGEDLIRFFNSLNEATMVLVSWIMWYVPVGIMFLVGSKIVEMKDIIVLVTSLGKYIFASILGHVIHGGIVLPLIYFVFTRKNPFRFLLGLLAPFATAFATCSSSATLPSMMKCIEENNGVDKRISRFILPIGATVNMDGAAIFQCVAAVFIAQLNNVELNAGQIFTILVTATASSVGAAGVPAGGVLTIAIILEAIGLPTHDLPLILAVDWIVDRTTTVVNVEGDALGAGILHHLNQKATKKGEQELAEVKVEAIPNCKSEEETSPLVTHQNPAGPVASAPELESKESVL
Procedure: as §1

[3] = 300 μM, −20 mV, opposite the current induced by substrate

| Ki [1] | Ki [2] | block of leak current in mASCT2 (FIG. 4) [1, 3] | block of leak current in hASCT1 (FIG. 4) [2, 3] | Compound |
| --- | --- | --- | --- | --- |
| 828 µM | 493 µM | – | – | O=C(O)[C@H]1NC[C@H](OCc2ccccc2)[C@H]1O [CSE113, cis-3-hydroxy-trans-4-benzyloxy-L-proline] |
| 10 µM | 13 µM | – | – | O=C(O)[C@H]1NC[C@@H](OCc2cccc(Oc3ccccc3)c2)[C@@H]1O [CSE130] |
| 69 µM | 39 µM | blocking a leak current | – | O=C(O)[C@H]1NC[C@@H](OCc2ccccc2)[C@@H]1O [CSE121, trans-3-hydroxy-cis-4-benzyloxy-L-proline] |
| 922 µM | 564 µM | – | – | C[C@H]1[C@@H](C(=O)O)NC[C@@H]1O [CSE109] |
| ~10 µM | ~10 µM | – | – | O=C(O)[C@H]1NC[C@@H](OCc2cccc3ccccc23)[C@@H]1O [CSE132] |
| 1150 µM | 1050 µM | – | – | C[C@@H]1CN[C@H](C(=O)O)[C@H]1O [CSE110] |
| 926 µM | > 500 µM | – | – | C[C@]1(O)CN[C@H](C(=O)O)C1 [CSE95, cis-4-methyl-trans-4-hydroxy-L-proline] |
| 268 µM | 237 µM | – | blocking a leak current | CC(C)O[C@@H]1CN[C@H](C(=O)O)[C@H]1O [CSE122] |
| 502 µM | 594 µM | – | – | O=C(O)[C@H]1NC[C@H](O)[C@H]1Oc1ccccc1 [CSE117, (2S,3S,4S)-3-phenoxy-4-hydroxy-proline] |
| 600 µM | 481 µM | – | – | CO[C@H]1CN[C@H](C(=O)O)[C@@H]1O [CSE124] |
| 0.24 µM | 0.31 µM | – | – | O=C(O)[C@H]1NC[C@@H](OCc2ccc(-c3ccccc3)cc2)[C@@H]1O [CSE131, (2S,3R,4R)-3-hydroxy-4-o-methyl-p-biphenyl-proline] |
| > 500 µM | > 500 µM | – | – | CC(C)O[C@H]1CN[C@H](C(=O)O)[C@@H]1O [CSE127, cis-3-hydroxy-trans-4-isopropoxy-L-proline] |
| 1080 µM | > 500 µM | – | – | C[C@@]1(O)CN[C@H](C(=O)O)C1 [CSE96, cis-4-hydroxy-trans-4-methyl-L-proline] |
| 235 µM | 214 µM | – | – | CO[C@@H]1CN[C@H](C(=O)O)[C@H]1O [CSE115, trans-3-hydroxy-cis-4-methoxy-L-proline] |
| 141 µM | 150 µM | – | – | O=C(O)[C@H]1NC[C@@H](Oc2ccccc2)C1O (stereo in doubt) [CSE118, (2S,3S,4R)-3-hydroxy-4-phenoxy-proline] |
| 1130 µM | 332 µM | – | – | O=C(O)[C@H]1NC[C@H](O)[C@H]1c1ccccc1 [CSE103, (2S,3S,4R)-3-phenyl-4-hydroxy-proline] |
| > 500 µM | > 500 µM | – | – | O=C(O)[C@H]1NC[C@@H](c2ccccc2)[C@@H]1O [CSE104, (2S,3S,4R)-3-hydroxy-4-phenyl-proline] |

| Compound | Ki [1] | Ki [2] | block of leak current in mASCT2 (FIG. 4) [1, 3] | block of leak current in hASCT1 (FIG. 4) [2, 3] |
| --- | --- | --- | --- | --- |
| O=C(O)[C@@H]1C[C@H](O)CN1 [CSE111] | 872 µM | 805 µM | – | – |
